From US20260041679A1, “METHOD OF TREATING HYPERTENSION WITH THE ALDOSTERONE SYNTHASE INHIBITOR BAXDROSTAT” (CINCOR PHARMA, INC., priority 2022, published 2026)

Columns and labels:
[1] = Single ascending dose study, pharmacokinetics (Example 1); type: in vivo
Protocol: Eighty-eight healthy male volunteers completed the first-in-human study of baxdrostat. In part 1 of the trial, subjects received a single oral dose of baxdrostat ranging from 1 to 360 mg in order to evaluate safety, tolerability, PK, and pharmacodynamics (PD). Part 2 evaluated the PK of a single 3 mg intravenous dose of baxdrostat.

[2] = tested on: patients with uHTN; test: Study 124 Part 2: 2 mg baxdrostat monotherapy for 4 weeks, SBP and safety; type: in vivo, human; settings: for AESI, % / AESI, e - Number of events / AESI, n - Number of subjects / SAEs, % / SAEs, e - Number of events / SAEs, n - Number of subjects / TEAEs Drug-Related, % / TEAEs Drug-Related, e - Number of events / TEAEs Drug-Related, n - Number of subjects / TEAEs Leading to death, % / TEAEs Leading to death, e - Number of events / TEAEs Leading to death, n - Number of subjects / TEAEs Leading to dosing discontinuation, % / TEAEs Leading to dosing discontinuation, e - Number of events / TEAEs Leading to dosing discontinuation, n - Number of subjects / TEAEs Leading to study discontinuation, % / TEAEs Leading to study discontinuation, e - Number of events / TEAEs Leading to study discontinuation, n - Number of subjects / TEAEs, % / TEAEs, e - Number of events / TEAEs, n - Number of subjects: Part 2
Protocol: Study 124 is a double-blind, placebo-controlled, dose range finding, multicenter study conducted in patients with uHTN receiving background antihypertensive agent(s) that are either an ACEI or an ARB, an ACEI/ARB plus a thiazide diuretic, or an ACEI/ARB plus a calcium channel blocker. The study consists of two parts: Part 1 consists of an 8-week treatment period in which the patients are to be assigned to one of 4 dose groups in equal ratio testing 0.5 mg, 1 mg, and 2 mg baxdrostat effects compared to a placebo. Patients are to administer double-blind baxdrostat tablets once per day while they continue taking the background antihypertensive medications. After 8 weeks of double-blind treatment, patients were to enter part 2 of the study unless the patient was assigned to the 2 mg group and the SBP remains ≥130 mmHg. In part 2 of the study, all patients are to cease dosing with background antihypertensive medication and take only baxdrostat 2 mg dose as a monotherapy for 4 weeks.
The secondary objectives are to evaluate the change from baseline in mean seated DBP with each of the selected dose strengths of baxdrostat compared to placebo after 8 weeks of treatment (Part 1), the change from baseline in 24-hour urine aldosterone and serum aldosterone levels with each of the selected dose strengths of baxdrostat compared to placebo after 8 weeks of treatment (Part 1), the percentage of patients achieving a mean seated SBP<130 mmHg (“responders”) with each of the selected dose strengths of baxdrostat compared to placebo after 8 weeks; and the change from baseline in 24-hour urine renin and serum renin levels with baxdrostat compared to placebo after 8 weeks of treatment. Patients who have completed the Part 2 study through Week 12 or who were considered withdrawn at the end of Part 1 may be eligible to enter a separate open label extension study (Study 130). Part 2 is an exploratory phase of the trial designed to evaluate the effect of 4 weeks of monotherapy with 2 mg baxdrostat in this hypertensive population, but the major goal of the Part 2 period is to transition patients to a long-term open label safety extension study of baxdrostat at the highest dose likely to be used in the hypertension population.
In Part 2, background antihypertensive therapy was discontinued following Part 1, and patients took two mg Baxdrostat for four additional weeks. […] There were two cases of moderate hyperkalemia with K+>/=6.0 mEq/L in the 213 patients in Part 2; both patients had stopped diuretic at the start of Part 2 and developed transient moderate hyperkalemia within 2 weeks.

CCC(=O)N[C@@H]1CCCc2c(-c3ccc4c(c3)CCC(=O)N4C)cncc21 [baxdrostat, (R)—N-(4-(1-methyl-2-oxo-1,2,3,4-tetrahydroquinolin-6-yl)-5,6,7,8-tetrahydroisoquinolin-8-yl) propionamide]
half-life ([1]; human, plasma, oral, single dose, healthy male volunteers): 29 h
plasma levels of baxdrostat vs dose ([1]; single oral dose 1 to 360 mg): increased in a dose-proportional manner
SBP between the start and the end of the four weeks ([2]; 2 mg only, after withdrawal of background medication): remained stable
safety and tolerability ([2]; 2 mg, 213 patients who entered Part 2): safe and well-tolerated
cases of moderate hyperkalemia with K+ >/=6.0 mEq/L ([2]; 213 patients in Part 2): two cases
treatment emergent SAEs ([2]; Part 2, 2 mg): 4 events/3 patients with none deemed related to baxdrostat
AESI, % ([2]; 0.5 mg to 2 mg, n = 63): 0%
AESI, e - Number of events ([2]; 0.5 mg to 2 mg, n = 63): 0
AESI, n - Number of subjects ([2]; 0.5 mg to 2 mg, n = 63): 0
SAEs, % ([2]; 0.5 mg to 2 mg, n = 63): 0.0%
SAEs, e - Number of events ([2]; 0.5 mg to 2 mg, n = 63): 0
SAEs, n - Number of subjects ([2]; 0.5 mg to 2 mg, n = 63): 0
TEAEs Drug-Related, % ([2]; 0.5 mg to 2 mg, n = 63): 5.6%
TEAEs Drug-Related, e - Number of events ([2]; 0.5 mg to 2 mg, n = 63): 4
TEAEs Drug-Related, n - Number of subjects ([2]; 0.5 mg to 2 mg, n = 63): 3
TEAEs Leading to death, % ([2]; 0.5 mg to 2 mg, n = 63): 0.0%
TEAEs Leading to death, e - Number of events ([2]; 0.5 mg to 2 mg, n = 63): 0
TEAEs Leading to death, n - Number of subjects ([2]; 0.5 mg to 2 mg, n = 63): 0
TEAEs Leading to dosing discontinuation, % ([2]; 0.5 mg to 2 mg, n = 63): 0%
TEAEs Leading to dosing discontinuation, e - Number of events ([2]; 0.5 mg to 2 mg, n = 63): 0
TEAEs Leading to dosing discontinuation, n - Number of subjects ([2]; 0.5 mg to 2 mg, n = 63): 0
TEAEs Leading to study discontinuation, % ([2]; 0.5 mg to 2 mg, n = 63): 0.0%
TEAEs Leading to study discontinuation, e - Number of events ([2]; 0.5 mg to 2 mg, n = 63): 0
TEAEs Leading to study discontinuation, n - Number of subjects ([2]; 0.5 mg to 2 mg, n = 63): 0
TEAEs, % ([2]; 0.5 mg to 2 mg, n = 63): 16.7%
TEAEs, e - Number of events ([2]; 0.5 mg to 2 mg, n = 63): 15
TEAEs, n - Number of subjects ([2]; 0.5 mg to 2 mg, n = 63): 9
AESI, % ([2]; 1 mg to 2 mg, n = 62): 1.8%
AESI, e - Number of events ([2]; 1 mg to 2 mg, n = 62): 1
AESI, n - Number of subjects ([2]; 1 mg to 2 mg, n = 62): 1
SAEs, % ([2]; 1 mg to 2 mg, n = 62): 1.8%
SAEs, e - Number of events ([2]; 1 mg to 2 mg, n = 62): 2
SAEs, n - Number of subjects ([2]; 1 mg to 2 mg, n = 62): 1
TEAEs Drug-Related, % ([2]; 1 mg to 2 mg, n = 62): 8.8%
TEAEs Drug-Related, e - Number of events ([2]; 1 mg to 2 mg, n = 62): 6
TEAEs Drug-Related, n - Number of subjects ([2]; 1 mg to 2 mg, n = 62): 5
TEAEs Leading to death, % ([2]; 1 mg to 2 mg, n = 62): 0.0%
TEAEs Leading to death, e - Number of events ([2]; 1 mg to 2 mg, n = 62): 0
TEAEs Leading to death, n - Number of subjects ([2]; 1 mg to 2 mg, n = 62): 0
TEAEs Leading to dosing discontinuation, % ([2]; 1 mg to 2 mg, n = 62): 3.5%
TEAEs Leading to dosing discontinuation, e - Number of events ([2]; 1 mg to 2 mg, n = 62): 3
TEAEs Leading to dosing discontinuation, n - Number of subjects ([2]; 1 mg to 2 mg, n = 62): 2
TEAEs Leading to study discontinuation, % ([2]; 1 mg to 2 mg, n = 62): 0.0%
TEAEs Leading to study discontinuation, e - Number of events ([2]; 1 mg to 2 mg, n = 62): 0
TEAEs Leading to study discontinuation, n - Number of subjects ([2]; 1 mg to 2 mg, n = 62): 0
TEAEs, % ([2]; 1 mg to 2 mg, n = 62): 21.1%
TEAEs, e - Number of events ([2]; 1 mg to 2 mg, n = 62): 26
TEAEs, n - Number of subjects ([2]; 1 mg to 2 mg, n = 62): 12
AESI, % ([2]; 2 mg, n = 60): 2.4%
AESI, e - Number of events ([2]; 2 mg, n = 60): 1
AESI, n - Number of subjects ([2]; 2 mg, n = 60): 1
SAEs, % ([2]; 2 mg, n = 60): 0%
SAEs, e - Number of events ([2]; 2 mg, n = 60): 0
SAEs, n - Number of subjects ([2]; 2 mg, n = 60): 0
TEAEs Drug-Related, % ([2]; 2 mg, n = 60): 0%
